The text below walks through data of ChEMBL document CHEMBL5584341, “Discovery of Potent, Specific, and Orally Available NLRP3 Inflammasome Inhibitors Based on Pyridazine Scaffolds for the Treatment of Septic Shock and Peritonitis” (J Med Chem, 2024).

In general, inhibition refers to the drop in the measured response relative to a control, in per cent. What is called IC50 is the concentration that gives 50% inhibition. For orientation: half-life means how long it takes for the measured level to halve.

Data set [1] in a line: Inhibition of IL-1beta release in PMA-differentiated/ LPS and nigericin stimulated human THP-1 cells at 0.5 uM pretreated with LPS for 3 hrs followed by incubation with compound for 40 mins and later stimulated with nigericin for 40 mins by ELISA. In kind it is functional. To be noted: THP-1, 1.333 h, time 80 min. In general terms: An ELISA detects its analyte on a solid surface through an enzyme-linked reagent.

The nature of data set [2]: Inhibition of IL-1beta release in PMA-differentiated/ LPS and nigericin stimulated human THP-1 cells at 0.1 uM pretreated with LPS for 3 hrs followed by incubation with compound for 40 mins and later stimulated with nigericin for 40 mins by ELISA. To be noted: THP-1, 1.333 h, time 80 min. In kind it is functional.
Data set [3] in a line: Inhibition of IL-1beta release in PMA-differentiated/ LPS and nigericin stimulated human THP-1 cells pretreated with LPS for 3 hrs followed by incubation with compound for 40 mins and later stimulated with nigericin for 40 mins by ELISA. In kind it is functional, cell-based.
For the next data set, the target named is hERG (KCNH2) (Homo sapiens, UniProt Q12809). In words: Inhibition of human ERG at 20 uM relative to control.
Sequence of hERG (KCNH2) (Q12809 whole entry): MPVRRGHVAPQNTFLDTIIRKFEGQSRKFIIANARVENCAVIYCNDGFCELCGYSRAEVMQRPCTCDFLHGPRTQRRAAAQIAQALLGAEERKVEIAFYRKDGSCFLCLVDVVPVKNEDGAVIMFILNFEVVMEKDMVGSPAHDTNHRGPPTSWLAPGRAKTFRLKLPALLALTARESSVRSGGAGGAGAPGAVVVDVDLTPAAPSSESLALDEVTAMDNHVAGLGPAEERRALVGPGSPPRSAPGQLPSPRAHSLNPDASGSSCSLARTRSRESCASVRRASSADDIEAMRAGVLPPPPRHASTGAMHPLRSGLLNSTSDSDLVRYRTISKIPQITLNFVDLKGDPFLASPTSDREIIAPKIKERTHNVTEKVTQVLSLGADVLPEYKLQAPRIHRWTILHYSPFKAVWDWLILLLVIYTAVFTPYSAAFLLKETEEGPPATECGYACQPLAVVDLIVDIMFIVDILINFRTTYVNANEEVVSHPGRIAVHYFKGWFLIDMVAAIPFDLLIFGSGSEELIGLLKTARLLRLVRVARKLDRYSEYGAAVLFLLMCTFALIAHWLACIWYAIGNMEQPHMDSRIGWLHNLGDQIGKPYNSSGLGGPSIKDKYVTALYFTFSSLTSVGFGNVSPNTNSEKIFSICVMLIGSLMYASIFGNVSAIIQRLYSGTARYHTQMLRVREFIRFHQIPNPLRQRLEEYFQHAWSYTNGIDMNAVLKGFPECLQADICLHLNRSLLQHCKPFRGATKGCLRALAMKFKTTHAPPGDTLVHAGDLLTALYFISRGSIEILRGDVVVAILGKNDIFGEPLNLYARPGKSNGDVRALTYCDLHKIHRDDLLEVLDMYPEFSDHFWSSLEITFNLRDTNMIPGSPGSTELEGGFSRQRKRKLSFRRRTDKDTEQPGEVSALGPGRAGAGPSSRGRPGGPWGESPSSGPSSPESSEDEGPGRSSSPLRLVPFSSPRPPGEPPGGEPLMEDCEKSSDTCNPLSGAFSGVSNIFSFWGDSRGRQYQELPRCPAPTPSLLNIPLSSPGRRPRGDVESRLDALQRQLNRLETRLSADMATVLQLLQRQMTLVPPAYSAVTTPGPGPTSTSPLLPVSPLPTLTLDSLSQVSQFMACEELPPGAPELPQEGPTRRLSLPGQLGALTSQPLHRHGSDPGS
The nature of data set [4]: Metabolic stability in human liver microsomes assessed as half life at 10 uM […] in presence of NADPH by LC-MS/MS analysis. In kind it is ADME, Microsome. (In general: Liver microsomes are a subcellular fraction often used to study metabolism.)
The nature of data set [5]: Metabolic stability in human liver microsomes assessed as intrinsic clearance per g protein at 10 uM […] in presence of NADPH by LC-MS/MS analysis. Format: ADME, Microsome.
The test system of another data set is Mus musculus. The experiment in a line: Antiinflammatory activity against LPS induced septic shock in BALB/c mouse assessed as increase in survival rate at 25 mg/kg, ip pretreated for 1 hr followed by LPS stimulation and measured after 72 hrs. To be noted: time 73 hrs. Format: functional.

Each structure is given as a SMILES string. Where only a bound is given, the exact number is not on record here.

Turning to `[2H]C([2H])([2H])C([2H])([2H])N1CCC[C@@H](Nc2nnc(-c3ccc4occc4c3O)c3c2C2CCC3CC2)C1`, in data set [1], the inhibition at 0.5 µM is 98.5%. Moreover, in data set [2], the inhibition at 0.1 µM was 98.6%. Further, in data set [3], the IC50 was determined as 1 nM. Moreover, the inhibition at 20 µM against hERG (KCNH2) is 85.8%. Also, the half-life at 10 µM in data set [4] is more than 2 h. Moreover, the intrinsic clearance in data set [5] is less than 12 mL/min.

Consider `CCN1CCC[C@@H](Nc2nnc(-c3ccc4occc4c3O)c3c2C2CCC3CC2)C1`, for which, in data set [1], the inhibition at 0.5 µM was found to be 98.3%. Also, the inhibition at 0.1 µM in data set [2] came to 98.6%. Also, the IC50 in data set [3] was found to be 1 nM. The inhibition at 20 µM at hERG (KCNH2) stood at 85.3%. In addition, the half-life at 10 µM in data set [4] is more than 2 h. For the same molecule, the intrinsic clearance in data set [5] was less than 12 mL/min.

On to `CC(C)(O)c1coc(S(=O)(=O)NC(=O)Nc2c3c(cc4c2CCC4)CCC3)c1`, for which the inhibition at 0.5 µM in data set [1] stood at 99.3%. Further, the inhibition at 0.1 µM in data set [2] was 99.2%. The IC50 in data set [3] is 8 nM. The Activity with Mus musculus was 60%.

For the molecule `CN1C[C@H](F)C[C@@H](Nc2nnc(-c3ccc4occc4c3O)c3c2C2CCC3CC2)C1`, the inhibition at 0.5 µM in data set [1] came out at 98.6%. Also, in data set [2], the inhibition at 0.1 µM is 98.6%. Besides, the IC50 in data set [3] is 5 nM. In addition, the inhibition at 20 µM on hERG (KCNH2) worked out at 78.5%. In addition, the half-life at 10 µM in data set [4] is more than 2 h. For the same molecule, the intrinsic clearance in data set [5] is less than 12 mL/min.

For the molecule `Oc1c(-c2nnc(N[C@@H]3CCC[C@H](O)C3)c3c2C2CCC3CC2)ccc2occc12`, the inhibition at 0.5 µM in data set [1] worked out at 98.2%. Besides, the inhibition at 0.1 µM in data set [2] came out at 97.2%. Further, the IC50 in data set [3] worked out at 4 nM. Also, on hERG (KCNH2), the inhibition at 20 µM amounted to 59%. In data set [4], the half-life at 10 µM stood at 1.16 h. For the same molecule, in data set [5], the intrinsic clearance came to 20 mL/min.

Turning to `CC(CO)N1CCC[C@@H](Nc2nnc(-c3ccc4occc4c3O)c3c2C2CCC3CC2)C1` (stereo partly specified), the inhibition at 0.5 µM in data set [1] amounted to 99%. In addition, the inhibition at 0.1 µM in data set [2] was determined as 98.8%. Also, the IC50 in data set [3] was 4 nM. In addition, the inhibition at 20 µM against hERG (KCNH2) was found to be 71%. The half-life at 10 µM in data set [4] is more than 2 h. Further, the intrinsic clearance in data set [5] is less than 12 mL/min.

As for `Oc1c(-c2nnc(N[C@@H]3CCCN(C4CC(F)(F)C4)C3)c3c2C2CCC3CC2)ccc2occc12`, the inhibition at 0.5 µM in data set [1] was 98.6%. Further, the inhibition at 0.1 µM in data set [2] is 98.5%. In addition, in data set [3], the IC50 was 2 nM. Further, the inhibition at 20 µM against hERG (KCNH2) was -1.03%. Also, the half-life at 10 µM in data set [4] was found to be 0.745 h. Further, the intrinsic clearance in data set [5] turned out to be 31 mL/min.

For `Oc1c(-c2nnc(N[C@@H]3CCCC[C@H]3O)c3c2C2CCC3CC2)ccc2occc12`, the inhibition at 0.5 µM in data set [1] is 96.3%. Further, in data set [2], the inhibition at 0.1 µM was 94.9%. For the same molecule, in data set [3], the concentration for half-maximal inhibition (IC50) stood at 6 nM. Besides, the inhibition at 20 µM at hERG (KCNH2) worked out at 60%. The half-life at 10 µM in data set [4] was more than 2 h. For the same molecule, the intrinsic clearance in data set [5] was less than 12 mL/min.
